# Experimental data taken from US8425880B1, “Metal-containing materials for treatment of bacterial conditions” (priority 2007, dated 2013).
# Several values for one entry are separate records, joined by “and”; a condition that tells them apart may be missing. Equal values may be shown once.
# Assays:
# C. perfringens = assay type: cell-based, Clostridium perfringens
# [1] = system: C. difficile spores (strain ATCC 43596); test: Sporicidal assay; assay type: cell-based, Clostridium difficile; set-up: key to growth after 5-6 days of subculture: presence (+) or absence (−) of growth after 5-6 days of subculture; presence (+) or absence (−) of growth after 5-6 days of subculture
# Experimental: Louis, Mo.). […] Silver preparations were filtered at 0.2 microns and stored in the dark at room temperature. Spore germination was induced as previously described in, for example, […] and Sonenshein A L. Mol Microbiol. 2003 48(3): 811-821; and Ionesco H. C R Acad Sci Hebd […]. 25; 287(6):659-61. C. difficile suspended in BHI was heat-killed at 80° C. for 10 minutes, and germination then stimulated by a 30-min incubation at 50° C. in the presence of 165 μM thioglycollate, followed by a 15-min incubation at 37° C. in the presence of 4 mg/ml lysozyme.
# C. difficile = assay type: cell-based, Clostridium difficile; settings: for Microdilution MIC: pH 4
Molecule,MIC (C. perfringens),inactivation of C. difficile spores [1],"growth after 5-6 days of subculture ([1]; Expt 2, Conc. 0.00005%)","growth after 5-6 days of subculture ([1]; Expt 2, Conc. 0.0005%)","growth after 5-6 days of subculture ([1]; Expt 2, Conc. 0.005%)","growth after 5-6 days of subculture ([1]; Expt 2, Conc. 0.05%)","growth after 5-6 days of subculture ([1]; Expt 3, Conc. 0.01%)","growth after 5-6 days of subculture ([1]; Expt 3, Conc. 0.03%)",MIC (C. difficile),Microdilution MIC (C. difficile),"growth after 5-6 days of subculture ([1]; Expt 1, Conc. 0.02%)","growth after 5-6 days of subculture ([1]; Expt 1, Conc. 0.2%)","growth after 5-6 days of subculture ([1]; Expt 1, Conc. 2%)"
"O=[N+]([O-])[O-].[Ag+] [AgNO3, Silver nitrate]",92 ppm (μg/ml),inactivated the spores of C. difficile,+,−,−,−,−,−,18 (8-23) ppm (μg/ml),18 ppm and 9 ppm,,,
"O=CCCCC=O [Glutaraldehyde, glutaraldehyde]",,,,,,,,,,,+,−,−
silver (I) oxide [Ag2O],,inactivated the spores of C. difficile,,,,,−,−,,16 ppm and 31 ppm,,,
